US8674064B2, “Immunogenic compositions against human progastrin peptides” (Onkologix Ltd, priority 2010, dated 2014)
Ends that are not written are not given here.

Legend:
huG17 [1] = test: ELISA antibody responses in rabbits after immunization with peptide-carrier conjugates; assay type: in vivo; settings: one administration, FIG. 2
Procedure: FIG. 2 depicts antibody responses in rabbits, as measured by ELISA, with one administration of a conjugate constructed with peptide 1 (hG18-TT) and peptide 2 (hG21-TT) of Examples 1 and Example 2 below, per A and B, respectively.
(§1) The conjugate may be characterized as to immunomimic peptide content by a number of methods known to those skilled in the art including weight gain, amino acid analysis, etc. Conjugates of peptides G18 and G21 to TT produced by these methods were determined by amino acid analysis to have 10-30 moles of peptide per 104-106 MW of TT and all were considered suitable as immunogens for immunization of test animals. Similarly DT conjugates of G18 and G21, were prepared in the same manner to determine ELISA titers using huG17 as the substrate for assay of antibody binding.
The inventors constructed conjugates comprising each of the G18 and G21 peptides, supra, linked to TT and DT as described in Examples 1 and 2. They then immunized four rabbits with the G18 immunogen (FIG. 2A) and four rabbits with the G21 immunogen (FIG. 2B).

huG17 [2] = test: ELISA antibody responses in mice after immunization with peptide-carrier conjugates; assay type: in vivo; settings: three immunizations, FIG. 1
Procedure: FIG. 1 depicts antibody responses in mice as measured by ELISA and are in response to three immunizations with immunogens comprising each of the conjugates hG18-TT, hG18-DT, hG21-TT and hG21-DT (A, B, C and D, respectively).
as §1
The inventors constructed conjugates comprising each of the G18 and G21 peptides listed in Example 1 linked to TT and DT, as described in Examples 1 and 2. They then immunized six mice with the peptide G18 immunogen (FIGS. 1A, B) and six mice with the peptide G21 immunogen (FIGS. 1C, D).

[3] = tested on: human gastric cancer cells (BCG-823); settings: in vivo

Cys-pro-Pro-Pro-Pro-Ser-Ser-Gly-Trp-Met-Asp-nPhe-Gly-Arg-Arg-Ser-Ala-Glu-Asp-Glu-Asn (CPPPPSSGWMDFGRRSAEDEN; not fully specified (residues 2, 12); printed as Cys-pro-Pro-Pro-Pro-Ser-Ser-Gly-Trp-Met-Asp-nPhe-Gly-Arg-Arg-Ser-Ala-Glu-Asp-Glu-Asn) [Peptide 1]
effective: potency, eliciting of antibody and duration of the antibody responses induced (ELISA) (huG17 [1]) | potency, eliciting of antibody and duration of the antibody responses induced (ELISA) (huG17 [2]) | antibody responses effective in the presence of conventional gastric cancer chemotherapies [3] | inhibiting the growth of human gastric cancer cells [3]

pGlu-Gly-Pro-Trp-isoVal-Glu-Glu-Glu-Glu-Glu-Ala-Ser-Ser-Pro-Pro-Pro-pro-Cys (EGPWVEEEEEASSPPPPC; not fully specified (residues 1, 5, 17); printed as pGlu-Gly-Pro-Trp-isoVal-Glu-Glu-Glu-Glu-Glu-Ala-Ser-Ser-Pro-Pro-Pro-pro-Cys) [Peptide 2]
effective: potency, eliciting of antibody and duration of the antibody responses induced (ELISA) (huG17 [1]) | potency, eliciting of antibody and duration of the antibody responses induced (ELISA) (huG17 [2]) | antibody responses effective in the presence of conventional gastric cancer chemotherapies [3] | inhibiting the growth of human gastric cancer cells [3]
